US11980596B2 (priority 2017, dated 2024)

Test system: subjects with MDD at imminent risk for suicide
[1] = esketamine 84 mg, double-blind phase, N = 35
[2] = esketamine 84 mg, follow up phase, N = 27

Description: The study consisted of a screening evaluation performed within 24 hours (or up to 48 hours upon consultation with the Sponsor's medical monitor) prior to Day 1 dose, immediately followed by a 25-day double-blind treatment phase (Day 1 to 25) with twice a week dosing, and a 56-day follow up phase (Day 26 to Day 81). The study was designed as a POC study and therefore a two-sided 0.20 significance level was used.
Among 68 randomized subjects, 66 were included in the safety analysis set (defined as receiving at least one dose of study medication in the double-blind phase). […] All safety subjects (N=66) were included in the intent-to-treat (ITT) analysis set (defined as receiving at least one dose of study medication during the double-blind phase and having both the baseline and the Day 1, 4-hour postdose evaluation for the MADRS total score). Forty-nine subjects were included in the safety (FU) analysis set (defined as all subjects who have at least 1 visit during the follow up phase).

## CN[C@]1(c2ccccc2Cl)CCCCC1=O [esketamine, (S)-2-(2-chlorophenyl)-2-(methylamino)cyclohexanone]
[1]
  TEAE leading to study discontinuation: Dysgeusia: 1 (2.9%) subjects (%)
  TEAE leading to study discontinuation: Dyspnea: 1 (2.9%) subjects (%)
  TEAE leading to study discontinuation: Gastrointestinal disorders: 1 (2.9%) subjects (%)
  TEAE leading to study discontinuation: Nausea: 1 (2.9%) subjects (%)
  TEAE leading to study discontinuation: Nervous system disorders: 2 (5.7%) subjects (%)
  TEAE leading to study discontinuation: Panic attack: 0 subjects (%)
  TEAE leading to study discontinuation: Psychiatric disorders: 2 (5.7%) subjects (%)
  TEAE leading to study discontinuation: Respiratory, thoracic and mediastinal disorders: 1 (2.9%) subjects (%)
  TEAE leading to study discontinuation: Ventricular extrasystoles: 1 (2.9%) subjects (%)
  Total no. subjects with TEAE: 33
  Total no. subjects with TEAE leading to study discontinuation: 5 (14.3%) subjects (%)
  Total no. subjects with a serious TEAE: 4 (11.4%) subjects (%)
  Total subjects with TEAE, % of subjects: (94.3%)
Esketamine 84 mg, double-blind phase, N = 35, possible, probable, very likely
  Possibly related TEAE: 29 (82.9%) subjects (%)
[2]
  AE Abdominal pain, % of subjects: (3.7%)
  AE Abdominal pain, no. subjects: 1
  AE Abdominal tenderness, % of subjects: (3.7%)
  AE Abdominal tenderness, no. subjects: 1
  AE Aphthous ulcer, no. subjects: 0
  AE Back pain, % of subjects: (3.7%)
  AE Back pain, no. subjects: 1
  AE Bronchitis, no. subjects: 0
  AE Cellulitis, no. subjects: 0
  AE Cogwheel rigidity, % of subjects: (3.7%)
  AE Cogwheel rigidity, no. subjects: 1
  AE Contusion, % of subjects: (3.7%)
  AE Contusion, no. subjects: 1
  AE Depressed mood, no. subjects: 0
  AE Depression, % of subjects: (3.7%)
  AE Depression, no. subjects: 1
  AE Diarrhea, % of subjects: (3.7%)
  AE Diarrhea, no. subjects: 1
  AE Dizziness, % of subjects: (3.7%)
  AE Dizziness, no. subjects: 1
  AE Drug hypersensitivity, no. subjects: 0
  AE Dry mouth, % of subjects: (7.4%)
  AE Dry mouth, no. subjects: 2
  AE Dysgeusia, % of subjects: (3.7%)
  AE Dysgeusia, no. subjects: 1
  AE Ear and labyrinth disorders, no. subjects: 0
  AE Ear infection, % of subjects: (3.7%)
  AE Ear infection, no. subjects: 1
  AE Epistaxis, % of subjects: (3.7%)
  AE Epistaxis, no. subjects: 1
  AE Flank pain, % of subjects: (3.7%)
  AE Flank pain, no. subjects: 1
  AE Folliculitis, no. subjects: 0
  AE Gastrointestinal disorders, % of subjects: (22.2%)
  AE Gastrointestinal disorders, no. subjects: 6
  AE Headache, % of subjects: (7.4%)
  AE Headache, no. subjects: 2
  AE Immune system disorders, no. subjects: 0
  AE Infections and infestations, % of subjects: (11.1%)
  AE Infections and infestations, no. subjects: 3
  AE Influenza, no. subjects: 0
  AE Injury, poisoning and procedural complications, % of subjects: (7.4%)
  AE Injury, poisoning and procedural complications, no. subjects: 2
  AE Insomnia, % of subjects: (11.1%)
  AE Insomnia, no. subjects: 3
  AE Intentional self-injury, % of subjects: (3.7%)
  AE Intentional self-injury, no. subjects: 1
  AE Loss of consciousness, % of subjects: (3.7%)
  AE Loss of consciousness, no. subjects: 1
  AE Meniere's disease, no. subjects: 0
  AE Metabolism and nutrition disorders, no. subjects: 0
  AE Migraine, % of subjects: (3.7%)
  AE Migraine, no. subjects: 1
  AE Musculoskeletal and connective tissue disorders, % of subjects: (7.4%)
  AE Musculoskeletal and connective tissue disorders, no. subjects: 2
  AE Musculoskeletal chest pain, % of subjects: (3.7%)
  AE Musculoskeletal chest pain, no. subjects: 1
  AE Musculoskeletal pain, % of subjects: (3.7%)
  AE Musculoskeletal pain, no. subjects: 1
  AE Nasal congestion, % of subjects: (3.7%)
  AE Nasal congestion, no. subjects: 1
  AE Nasopharyngitis, % of subjects: (3.7%)
  AE Nasopharyngitis, no. subjects: 1
  AE Nausea, no. subjects: 0
  AE Neck pain, % of subjects: (3.7%)
  AE Neck pain, no. subjects: 1
  AE Nervous system disorders, % of subjects: (22.2%)
  AE Nervous system disorders, no. subjects: 6
  AE Night sweats, % of subjects: (3.7%)
  AE Night sweats, no. subjects: 1
  AE Panic reaction, no. subjects: 0
  AE Pelvic pain, % of subjects: (3.7%)
  AE Pelvic pain, no. subjects: 1
  AE Pharyngitis, % of subjects: (7.4%)
  AE Pharyngitis, no. subjects: 2
  AE Polydipsia, no. subjects: 0
  AE Procedural pain, no. subjects: 0
  AE Psychiatric disorders, % of subjects: (18.5%)
  AE Psychiatric disorders, no. subjects: 5
  AE Rash, no. subjects: 0
  AE Renal and urinary disorders, no. subjects: 0
  AE Renal failure, no. subjects: 0
  AE Reproductive system and breast disorders, % of subjects: (3.7%)
  AE Reproductive system and breast disorders, no. subjects: 1
  AE Respiratory, thoracic and mediastinal disorders, % of subjects: (7.4%)
  AE Respiratory, thoracic and mediastinal disorders, no. subjects: 2
  AE Restlessness, % of subjects: (3.7%)
  AE Restlessness, no. subjects: 1
  AE Road traffic accident, % of subjects: (3.7%)
  AE Road traffic accident, no. subjects: 1
  AE Sedation, % of subjects: (3.7%)
  AE Sedation, no. subjects: 1
  AE Self-injurious ideation, no. subjects: 0
  AE Sexual dysfunction, no. subjects: 0
  AE Skin and subcutaneous tissue disorders, % of subjects: (3.7%)
  AE Skin and subcutaneous tissue disorders, no. subjects: 1
  AE Somnolence, no. subjects: 0
  AE Suicidal ideation, % of subjects: (3.7%)
  AE Suicidal ideation, no. subjects: 1
  AE Suicide attempt, no. subjects: 0
  AE Tooth impacted, no. subjects: 0
  AE Toothache, no. subjects: 0
  AE Tremor, % of subjects: (7.4%)
  AE Tremor, no. subjects: 2
  AE Upper respiratory tract infection, % of subjects: (3.7%)
  AE Upper respiratory tract infection, no. subjects: 1
  AE Viral upper respiratory tract infection, no. subjects: 0
  AE Vomiting, % of subjects: (3.7%)
  AE Vomiting, no. subjects: 1
  AE Vulvovaginal mycotic infection, % of subjects: (3.7%)
  AE Vulvovaginal mycotic infection, no. subjects: 1
  Serious adverse event: Cellulitis: 0 subjects (%)
  Serious adverse event: Infections and infestations: 0 subjects (%)
  Serious adverse event: Psychiatric disorders: 1 (3.7%) subjects (%)
  Serious adverse event: Suicidal ideation: 1 (3.7%) subjects (%)
  Serious adverse event: Suicide attempt: 0 subjects (%)
  Total no. subjects with a serious adverse event: 1 (3.7%) subjects (%)
  Total no. subjects with adverse events: 13
  Total subjects with adverse events, % of subjects: (48.1%)
Follow up period
  Suicide attempts (non-fatal): none
